Data taken from BindingDB's records for doi:10.1016/0014-2999(93)90722-t (Sanofi Recherche, 1993).
pKi: −log10 of the molar value. Values joined by “and” are separate entries in the source; they are usually repeats but may differ in a detail not shown here. Identical values can stand only once. Where a SMILES comes first, the peptide text is derived from it. [ ]: non-standard residue; d: D form. sY = N[C@@H](Cc1ccc(OS(=O)(=O)O)cc1)C(=O)O

Tests used:
[1] = biological target: T1, Gastrin/cholecystokinin type B receptor (Rattus norvegicus, UniProt P30553)
T1 sequence (P30553 whole entry): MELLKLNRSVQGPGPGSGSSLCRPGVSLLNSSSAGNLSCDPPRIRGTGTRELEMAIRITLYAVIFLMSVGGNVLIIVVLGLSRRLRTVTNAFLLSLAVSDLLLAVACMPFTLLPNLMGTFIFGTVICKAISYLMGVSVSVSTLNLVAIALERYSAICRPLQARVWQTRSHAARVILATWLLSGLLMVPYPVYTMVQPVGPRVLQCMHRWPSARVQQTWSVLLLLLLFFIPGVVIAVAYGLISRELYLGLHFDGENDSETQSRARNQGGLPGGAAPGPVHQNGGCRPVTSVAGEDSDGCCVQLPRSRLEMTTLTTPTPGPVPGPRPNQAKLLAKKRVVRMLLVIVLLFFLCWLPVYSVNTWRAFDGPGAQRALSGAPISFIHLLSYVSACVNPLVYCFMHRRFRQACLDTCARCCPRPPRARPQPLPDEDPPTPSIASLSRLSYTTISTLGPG

| pKi | pKi [1] | SMILES |
| --- | --- | --- |
| 7.62 | – | CSCC[C@H](NC(=O)[C@H](CC(C)C)NC(=O)[C@H](Cc1cnc[nH]1)NC(=O)CNC(=O)[C@@H](NC(=O)[C@H](C)NC(=O)[C@H](Cc1c[nH]c2ccccc12)NC(=O)[C@H](Cc1cnc[nH]1)NC(=O)[C@H](CC(N)=O)NC(=O)CN)C(C)C)C(N)=O [NSC_5486814] |
| 6.31 and 5.54 | 9.24 | O=C(O)Cn1c(C(=O)Nc2nc(-c3ccccc3Cl)cs2)cc2ccccc21 [CAS_122077] |
| 9.21 | – | CC[C@H](C)[C@H](NC(=O)[C@H](CCCNC(=N)N)NC(=O)[C@H](Cc1c[nH]cn1)NC(=O)[C@H](CO)NC(=O)[C@@H]1CCCN1C(=O)[C@H](CC(=O)O)NC(=O)[C@H](CC(C)C)NC(=O)[C@H](CC(N)=O)NC(=O)[C@H](CCC(N)=O)NC(=O)[C@H](CC(C)C)NC(=O)[C@H](CC(N)=O)NC(=O)[C@H](CCCCN)NC(=O)[C@@H](NC(=O)[C@@H](NC(=O)[C@H](CO)NC(=O)[C@H](CCSC)NC(=O)[C@H](CCCNC(=N)N)NC(=O)CNC(=O)[C@H](CO)NC(=O)[C@@H]1CCCN1C(=O)[C@H](C)NC(=O)[C@@H](N)CCCCN)[C@@H](C)CC)C(C)C)C(=O)N[C@@H](CO)C(=O)N[C@@H](CC(=O)O)C(=O)N[C@@H](CCCNC(=N)N)C(=O)N[C@@H](CC(=O)O)C(=O)N[C@@H](Cc1ccc(OS(=O)(=O)O)cc1)C(=O)N[C@@H](CCSC)C(=O)NCC(=O)N[C@@H](Cc1c[nH]c2ccccc12)C(=O)N[C@@H](CCSC)C(=O)N[C@@H](CC(=O)O)C(=O)N[C@@H](Cc1ccccc1)C(N)=O [CHOLECYSTOKININ] (H-KAPSGRMSIVKNLQNLDPSHRISDRD[sY]MGWMDF-NH2) |

| SMILES | pKi | pKi [1] |
| --- | --- | --- |
| CN1C(=O)[C@@H](NC(=O)c2cc3ccccc3[nH]2)N=C(c2ccccc2)c2ccccc21 [1H-Indole-2-carboxylic acid (1-methyl-2-oxo-5-phenyl-2,3-dihydro-1H-benzo[e][1,4]diazepin-3-yl)-amide: 0.1C4H10O. 0.15CH2Cl2] | 6.56 and 6.71 | – |
